According to PMC4914250, “Cancer therapeutic approach based on conformational stabilization of mutant p53 protein by small peptides” (Oncotarget, 2016):

Tests used:
mutp53 = test: Summary score of peptide functional screens; settings: overall score over conformation, DNA binding, viability and PCR screens
mutp53^R175H [1] = test: ELISA of mutp53 DNA binding (p53RE oligonucleotide), H1299-p53^R175H cell extract; assay type: biochemical, human; settings: score 0-6 compared to positive control; mutp53 DNA binding
Method: (§1) Cell extracts were added to ELISA plates coated with the indicated antibodies to allow mutp53 to react with the peptides and antibodies. αp53-HRP Ab was used for assessment of p53 levels. Numbers represent ratio of absorbance between the PAb1620 and PAb240 samples. All reads were normalized to the control […] reading of each extract. MCF7 (WTp53) and H1299-mutp53^A135V (tsp53) cells were used as positive controls for the WTp53 conformation (1620/240 ratio equals or exceeds 5:1). […] 96 well plates were coated with anti-p53 antibody, cell extracts containing p53 were reacted with oligonucleotides that contain a p53RE consensus binding site, labeled with biotin, in the presence or absence (NT) of test peptides. Streptavidin-HRP is used to quantify the amount of oligos in the well. TMB assay was performed to determine bound mutp53 levels (450nm). MCF7 and the H1299-mutp53^A135V(TS) cells serve as positive controls for WTp53. C.and D. - Bar graphs illustrating the effect of various selected peptides on mut-p53 dependent expression on cell viability. […] D, ES2 cells expressing endogenous mutp53 (blue bars) and ES2 cells knocked out for p53 by CRISPR construct (light blue bars). Cell lines were treated with selected peptides, Cis-platinum was used as positive control for cell death. 48 hours after treatment, cells were washed with PBS, and the remaining attached cells were stained with Crystal violet and washed 4 times with PBS. Stained cells were dissolved in 10% acetic acid and plates were taken for optical density measurement at […]. TEXT PRINTED IN THE PICTURE: (A) pCAP1: 0.87 | (A) pCAP2: 0.53 | (A) pCAP3: 0.59 | (A) pCAP4: 0.59 | (A) pCAP5: 0.60 | (A) pCAP6: 0.75 | (A) pCAP23: 1.06 | (A) pCAP24: 1.44 | (A) pCAP36: 1.25 | (A) pCAP47: 1.54 | (A) pCAP54: 1.54 | (A) pCAP60: 2.73 | (A) pCAP68: 2.22 | (A) pCAP83: 1.56 | (A) pCAP97: 2.45 DOUBTS OF THE COPYIST ABOUT THIS PICTURE: Panel A: the numbers over the bars are printed very small, rotated and blurred, so 3, 5, 6, 8 and 9 cannot be told apart with certainty. All values are best readings: pCAP1 0.87, pCAP2 0.53, pCAP3 0.59, pCAP4 0.59, pCAP5 0.60, pCAP6 0.75, pCAP23 1.06, pCAP24 1.44, pCAP36 1.25, pCAP47 1.54, pCAP54 1.54, pCAP60 2.73, pCAP68 2.22, pCAP83 1.56, pCAP97 2.45 / Panel A: the picture prints no measure with the numbers over the bars, so they are given as bare numbers / Panel A: numbers are also printed over the controls, which are not substances and are left out of lines. Best readings: NT 0.60, 60° 30'' 0.48, 60° 1' 0.37, 60° 3' 0.13, 60° 10' 0.05, MCF7 3.32, H1299TS 3.25
(§2) Next, we assessed the ability of our selected peptides to restore sequence-specific DNA binding to mutp53. To that end we employed an ELISA kit (R&D) in which cell extracts containing p53 are reacted with a biotinylated p53RE oligonucleotide and then incubated in wells coated with anti-p53 antibody, which is expected to trap the p53 protein and its associated p53RE DNA. The amount of p53RE retained in each well via p53 binding is quantified by incubation with streptavidin-HRP. […] Again, extracts of MCF7 and H1299-tsp53^A135V cells served as positive controls for WTp53 DNA binding activity. […] Importantly, there was substantial overlap between the peptides that stabilized the WT conformation (Figure 2A) and those that increased specific DNA binding (Figure 2B), further reinforcing the conclusion that those peptides stabilize mutp53 in a functional state. This was not seen with the randomly selected peptides 1-6 (black bars).
For these experiments, a commercial p53/DNA binding kit of “R&D” (Cat-DYC1355-5 Lot-1273366FA) was used, in accordance with manufacturer guide lines. Briefly, 96 well plates we coated with anti-p53 antibody overnight. Cell extracts containing p53 are reacted with an oligonucleotide that contains a p53 consensus binding site (provided in the kit), labeled with Biotin, in the presence or absence (NT) of test peptides. […]

WI38 = test: Crystal violet viability assay, WI38; assay type: cell-based; settings: score 0-6 compared to positive control, 48 h
Method: (§3) Cells were cultured in 96 wells plates with 2500-4000 cells/well. Serial dilutions of different peptides were added and the plates incubated for additional 48 h at 37°C. Then medium was removed and cell viability was determined by staining the cells with crystal violet (0.05%) in methanol/PBS (1:5, v/v), for 10 min, followed by 3 washes with PBS. 10% acetic acid was added to each well for 10 min. OD was determined at 595 nm.

EP156 = test: Crystal violet viability assay, EP156; assay type: cell-based; settings: score 0-6 compared to positive control, 48 h
Excerpt: (§4) We also performed a similar analysis on ES2 ovarian cancer cells, which express endogenous mp53^S241F, compared to ES2 cells in which p53 was stably knocked out using CRISPR/Cas9 (ES2 p53KO Figure S1F), to control for specificity for mutp53 (Figure 2D). In ES2 cells, too, some of the peptides caused a significant reduction in cell numbers, more prominent in the mutp53 expressing cells than in their p53KO counterparts. […] Overall, we performed this analysis on several different mutp53-expressing human cancer cell lines, and the results are summarized in Table S3. Based on this comprehensive picture, we reduced the number of most promising candidate lead peptides to 30. These peptides were then synthesized with an 8 arginine C-terminal tail for enhanced delivery across cell membranes (pCAPs 130-160); for clarity, peptides are referred to by their original number, with an R for poly arginine (see Table S3).
as §3

HOP62 = test: Crystal violet viability assay, HOP62; assay type: cell-based, human; settings: score 0-6 compared to positive control, 48 h
Excerpt: as §4, §3

[2] = test system: mutp53 in BT549 cell extract; test: ELISA of mutp53 conformation, BT549; assay type: biochemical, human; settings: score 0-6 compared to positive control
Excerpt: (§5) A total of close to 350 peptides, deduced from the phage sequences, were synthesized and subjected to several alternative complementary methods of semi high-throughput functional screening; we refer to these peptides as pCAPs (p53 conformation activating peptides). First, we used cell-free ELISA assays to evaluate the effect of individual peptides on mutp53 conformation and DNA binding in vitro. For conformation analysis (Figure 2A), microtiter plates were coated with PAb240, PAb1620 or PAb421 as control, then the effect of each peptide on reactivity of mutp53 with these antibodies was examined; WTp53 served as a positive control for PAb1620 reactivity.
(§6) 96-well plates were coated using 3 different anti p53 monoclonal antibodies, PAb421, PAb240 and PAb1620. Wells were incubated overnight (ON) with 100μl Ab (5μg/ml) in room temp (RT). The liquid was discarded, and the wells were washed 3 times with PBS, 200 μl. Next, blocking with 5% BSA in PBS for 2 hours (RT) was performed, followed by 3 washes in PBS. Samples of mutant and WT p53 proteins (100 μl, 10 μg/ml), together with control peptides or with test peptides 1-326 (5μg /ml), were incubated for 1.5 hours, and then added to the wells for1 hour at RT. 4 washes with PBST were performed. Next, HRP conjugated αp53 antibody (10μg/ml HAF1355 (R&D)) were added to the wells and incubated at RT for 1 hour. Plates were washed 3 times in PBST and TMB substrate solution (50μl each well, Thermo, (Cat. No. ES001-1L-K)) was added and incubated at 37°C for 20 min. The reaction was stopped with 2M Sulfuric acid (50μl). The absorbance was measured at 450 nm with a spectrophotometer. Protein concentration was determined by dividing the absorb an each sample to by the absorbance of PAb421 samples.

SK3 = test: Crystal violet viability assay, SK3; assay type: cell-based, human; settings: score 0-6 compared to positive control, 48 h
Excerpt: as §4, §3

[3] = test system: H1299 cells expressing mutp53^R175H; test: Crystal violet viability assay, H1299; assay type: cell-based; settings: score 0-6 compared to positive control, 48 h
Method: Cell extracts were added to ELISA plates coated with the indicated antibodies to allow mutp53 to react with the peptides and antibodies. αp53-HRP Ab was used for assessment of p53 levels. Numbers represent ratio of absorbance between the PAb1620 and PAb240 samples. All reads were normalized to the control PAb241 reading of each extract. MCF7 (WTp53) and H1299-mutp53^A135V (tsp53) cells were used as positive controls for the WTp53 conformation (1620/240 ratio equals or exceeds 5:1). […] 96 well plates were coated with anti-p53 antibody, cell extracts containing p53 were reacted with oligonucleotides that contain a p53RE consensus binding site, labeled with biotin, in the presence or absence (NT) of test peptides. Streptavidin-HRP is used to quantify the amount of oligos in the well. TMB assay was performed to determine bound mutp53 levels (450nm). MCF7 and the H1299-mutp53^A135V(TS) cells serve as positive controls for WTp53. C.and D. - Bar graphs illustrating the effect of various selected peptides on mut-p53 dependent expression on cell viability. […] D, ES2 cells expressing endogenous mutp53 (blue bars) and ES2 cells knocked out for p53 by CRISPR construct (light blue bars). Cell lines were treated with selected peptides, Cis-platinum was used as positive control for cell death. 48 hours after treatment, cells were washed with PBS, and the remaining attached cells were stained with Crystal violet and washed 4 times with PBS. Stained cells were dissolved in 10% acetic acid and plates were taken for optical density measurement at 595nM.
This simple assay measures the total number of cells, thus reflecting the combination of both cell death and growth arrest effects. […] After 48 hours of treatment cells were stained with crystal violet and OD at 595nm was determined.
Values on the Y-axis reflect the number of cells in the treated wells, normalized to the non-treated samples (NT; red bars).

mutp53^R175H [4] = test: ELISA of mutp53 conformation (PAb1620/PAb240), H1299-p53^R175H cell extract; assay type: biochemical, human; settings: score 0-6 compared to positive control; mutp53 conformation
Excerpt: as §5, §1
Extracts were prepared at a concentration of 750ng/μl and then reacted for 2 hours with different peptides. Plates coated with the different antibodies were then washed and blocked, and extracts pre-incubated either with or without peptides were added for two additional hours. After removal of extracts, plates were washed and incubated with HRP-conjugated anti-p53 antibody. Finally, HRP activity was quantified by optical density at 450nm. MCF7 cells (expressing WTp53) and H1299-tsp53^A135V cells, stably expressing a temperature sensitive p53 mutant that has mutant conformation at 37°C but WT conformation at 32°C [31], were used as positive controls for the WTp53 conformation (1620/240 ratio 5:1). […]

[5] = test system: mutp53 in SK3 cell extract; test: ELISA of mutp53 DNA binding (p53RE oligonucleotide), SK3; assay type: biochemical, human; settings: score 0-6 compared to positive control
Method: as §2
For these experiments, a commercial p53/DNA binding kit of “R&D” (Cat-DYC1355-5 Lot-1273366FA) was used, in accordance with manufacturer guide lines. Briefly, 96 well plates we coated with anti-p53 antibody overnight. Cell extracts containing p53 are reacted with an oligonucleotide that contains a p53 consensus binding site (provided in the kit), labeled with Biotin, in the presence or absence (NT) of test peptides. WT p53 is expected to bind this DNA binding site as well as to the antibody coating the test wells of the plate. Excess p53 and oligos were washed away and streptavidin-HRP was used to quantify the amount of oligos in the well, which is proportional to the DNA bound by p53. TMB assay was performed to determine HRP (ES001-1L-K) levels (450nm).

ES2 ovarian cancer cells = test: Crystal violet viability assay, ES2; assay type: cell-based, human; settings: score 0-6 compared to positive control, 48 h
Method: as §1, §4, §3

[6] = test system: mutp53 in SK3 cell extract; test: ELISA of mutp53 conformation, SK3; assay type: biochemical, human; settings: score 0-6 compared to positive control
Excerpt: as §5, §6

SPLQTPAAPGAAAGPALSPV [pCAP-7, synthesized peptide of the functional screen]
SCORE (mutp53): 3
DNA H1299 (mutp53^R175H [1]): 1
Viability WI38 (WI38): 2

myr-HSSHHHPTVQHRR [pCAP-257, myristoylated peptide, similarity to SIN3A]
Viability EP156 (EP156): 4
SCORE (mutp53): 16
Viability HOP62 (HOP62): 3
Conform BT549 [2]: 3
DNA H1299 (mutp53^R175H [1]): 3
Viability SK3 (SK3): 3

VWVHDSCHANLQNYRNYLP [pCAP-2, randomly selected peptide used as inert comparison]
SCORE (mutp53): 2

LPNPPERHH [pCAP-16]
Viability H1299 [3]: 3
Conform H1299 (mutp53^R175H [4]): 2
Viability EP156 (EP156): 4
SCORE (mutp53): 22
DNA SK3 [5]: 3
Viability HOP62 (HOP62): 3
DNA H1299 (mutp53^R175H [1]): 3

FWTQSIKERKMLNEHDFER [pCAP-3, randomly selected peptide used as inert comparison]
Viability H1299 [3]: 1
SCORE (mutp53): 4
Viability HOP62 (HOP62): 2

LEVIYMI [pCAP-5, randomly selected peptide used as inert comparison]
SCORE (mutp53): 2

EHDFEVRGDVVNGRNHQPK [pCAP-4, randomly selected peptide used as inert comparison]
SCORE (mutp53): 2
Viability ES2 (ES2 ovarian cancer cells): 2

DEDAKFRIRILMRR [pCAP-202, peptide with similarity to APAF1]
Conform SK3 [6]: 2
Viability H1299 [3]: 3
SCORE (mutp53): 13
Viability HOP62 (HOP62): 2
Conform BT549 [2]: 3
Viability SK3 (SK3): 3

LGIDEDEETETAPE [pCAP-6, randomly selected peptide used as inert comparison]
SCORE (mutp53): 4
Viability HOP62 (HOP62): 2

FPGHTIH [pCAP-100]
Conform SK3 [6]: 3
Viability H1299 [3]: 3
SCORE (mutp53): 19
DNA SK3 [5]: 3
Conform BT549 [2]: 1
DNA H1299 (mutp53^R175H [1]): 3
